Target: T1, STING (Homo sapiens, UniProt Q86WV6, G230A/H232R/R293Q/R71H)
T1 construct: host or cells: THP1-Dual KO-IFNAR2 cells
Test: STING reporter assay (luciferase) in THP1-Dual KO-IFNAR2 cells stimulated with 2′3′cGAMP
Format: cell-based
Settings: 2′3′cGAMP 15 μM final, 24 h, luciferase reporter activity, read-out: Pharmaron, THP1_IFNAR2 STING 24 h Luci Normalized: GeoMean EC50
Description: STING pathway activation by the compounds described herein was measured using TTIP1-Dual™ cells (KO-IFNAR2).
TTIP1-Dual™ KO-IFNAR2 Cells (obtained from invivogen) were maintained in RPMI, 10% FCS, 5 ml P/S, 2 mM L-glut, 10 mM Hepes, and 1 mM sodium pyruvate. Compounds were spotted in empty 384 well tissue culture plates (Greiner 781182) by Echo for a final concentration of 0.0017-100 μM. Cells were plated into the TC plates at 40 μL per well, 2×10E6 cells/mL. For activation with STING ligand, 2′3′cGAMP (MW 718.38, obtained from Invivogen), was prepared in Optimem media.
The following solutions were prepared for each 1×384 plate: • Solution A: 2 mL Optimem with one of the following stimuli: • […] • Solution B: 2 mL Optimem with […] Lipofectamine 2000→Incubate 5 min at RT
2 mL of solution A and 2 ml Solution B was mixed and incubated for 20 min at room temperature (RT). 20 μL of transfection solution (A+B) was added on top of the plated cells, with a final 2′3′cGAMP concentration of 15 μM. The plates were then centrifuged immediately at 340 g for 1 minute, after which they were incubated at 37° C., 5% CO2, >98% humidity for 24 h. Luciferase reporter activity was then measured. EC50 values were calculated by using standard methods known in the art.
Luciferase reporter assay: 10 μL of supernatant from the assay was transferred to white 384-plate with flat bottom and squared wells. One pouch of QUANTI-Luc™ Plus was dissolved in 25 mL of water. 100 μL of QLC Stabilizer per 25 mL of QUANTI-Luc™ Plus solution was added. 50 μL of QUANTI-Luc™ Plus/QLC solution per well was then added. Luminescence was measured on a Platereader (e.g., Spectramax I3X (Molecular Devices GF3637001)).
Luciferase reporter activity was then measured. EC50 values were calculated by using standard methods known in the art.

T1 sequence (Q86WV6 whole entry R71H/G230A/H232R/R293Q): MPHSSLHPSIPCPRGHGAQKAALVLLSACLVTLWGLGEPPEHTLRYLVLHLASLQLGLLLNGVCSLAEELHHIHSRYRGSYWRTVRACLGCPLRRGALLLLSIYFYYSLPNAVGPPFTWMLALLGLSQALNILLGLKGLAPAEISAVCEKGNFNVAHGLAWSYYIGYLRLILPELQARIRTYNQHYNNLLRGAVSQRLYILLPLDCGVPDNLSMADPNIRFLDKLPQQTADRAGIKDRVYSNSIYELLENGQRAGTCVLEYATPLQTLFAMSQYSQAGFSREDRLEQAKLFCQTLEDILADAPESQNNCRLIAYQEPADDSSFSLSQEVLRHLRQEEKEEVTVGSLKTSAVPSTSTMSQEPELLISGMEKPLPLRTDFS

EC50 | SMILES
0.2 to 1 µM | O=C(Nc1c[nH]c2ccc(OCCc3ccc(C(F)(F)F)cc3)cc12)c1ncccc1F [Compound 109, 3-fluoro-N-(5-(4-(trifluoromethyl)phenethoxy)-1H-indol-3-yl)picolinamide]
0.04 to 0.2 µM | Cn1cc(C(=O)Nc2c[nH]c3ccc(OCCc4ccc(C(F)(F)F)cc4)cc23)nn1 [Compound 244, 1-methyl-N-(5-(4-(trifluoromethyl)phenethoxy)-1H-indol-3-yl)-1H-1,2,3-triazole-4-carboxamide]
0.2 to 1 µM | Cn1cc(C(=O)Nc2c[nH]c3ccc(CCOc4ccc(C(F)(F)F)cc4)cc23)nn1 [Compound 243, 1-methyl-N-(5-(2-(4-(trifluoromethyl)phenoxy)ethyl)-1H-indol-3-yl)-1H-1,2,3-triazole-4-carboxamide]
0.2 to 1 µM | O=C(Nc1c[nH]c2ccc(OCC[C@@H]3C[C@@H]4CN(CC(F)(F)F)C[C@@H]4C3)cc12)c1cccnc1 [Compound 182, N-(5-(2-((3aR,5r,6aS)-2-(2,2,2-trifluoroethyl)octahydrocyclopenta[c]pyrrol-5-yl)ethoxy)-1H-indol-3-yl)nicotinamide]
0.2 to 1 µM | O=C(Nc1c[nH]c2ccc(CCOc3ccc(C(F)(F)F)cc3)cc12)c1ncco1 [Compound 145, N-(5-(2-(4-(trifluoromethyl)phenoxy)ethyl)-1H-indol-3-yl)oxazole-2-carboxamide]
0.2 to 1 µM | Cn1ccnc1C(=O)Nc1c[nH]c2ccc(OCC[C@@H]3C[C@@H]4CN(CC(F)(F)F)C[C@@H]4C3)cc12 [Compound 140, 1-methyl-N-(5-(2-((3aR,5r,6aS)-2-(2,2,2-trifluoroethyl)octahydrocyclopenta[c]pyrrol-5-yl)ethoxy)-1H-indol-3-yl)-1H-imidazole-2-carboxamide]
0.2 to 1 µM | O=C(Nc1c[nH]c2ccc(OCC[C@@H]3C[C@@H]4CN(CC(F)(F)F)C[C@@H]4C3)cc12)C1CC2C(C1)C2(F)F (stereo partly drawn) [Compound 208, 6,6-difluoro-N-(5-(2-((3aR,5r,6aS)-2-(2,2,2-trifluoroethyl)octahydrocyclopenta[c]pyrrol-5-yl)ethoxy)-1H-indol-3-yl)bicyclo[3.1.0]hexane-3-carboxamide]
1 to 5 µM | O=C(Nc1c[nH]c2ccc(OCCc3ccc(C(F)(F)F)cc3)cc12)c1ccccn1 [Compound 124, N-(5-(4-(trifluoromethyl)phenethoxy)-1H-indol-3-yl)picolinamide]
0.04 to 0.2 µM | Cn1ccnc1C(=O)Nc1c[nH]c2ccc(CCOc3ccc(C(F)(F)F)cc3)cc12 [Compound 143, 1-methyl-N-(5-(2-(4-(trifluoromethyl)phenoxy)ethyl)-1H-indol-3-yl)-1H-imidazole-2-carboxamide]
0.2 to 1 µM | Cc1noc(C)c1C(=O)Nc1c[nH]c2ccc(CCOc3ccc(C(F)(F)F)cc3)cc12 [Compound 119, 3,5-dimethyl-N-(5-(2-(4-(trifluoromethyl)phenoxy)ethyl)-1H-indol-3-yl)isoxazole-4-carboxamide]
0.2 to 1 µM | O=C(Nc1c[nH]c2ccc(CCOc3ccc(C(F)(F)F)cc3)cc12)c1ncccc1F [Compound 117, 3-fluoro-N-(5-(2-(4-(trifluoromethyl)phenoxy)ethyl)-1H-indol-3-yl)picolinamide]
0.2 to 1 µM | O=C(Nc1c[nH]c2ccc(OCCc3ccc(C(F)(F)F)cc3)cc12)c1cncs1 [Compound 113, N-(5-(4-(trifluoromethyl)phenethoxy)-1H-indol-3-yl)thiazole-5-carboxamide]
0.2 to 1 µM | O=C(Nc1c[nH]c2ccc(OCC[C@@H]3C[C@@H]4CN(CC(F)(F)F)C[C@@H]4C3)cc12)C1C2COCC21 (stereo partly drawn) [Compound 210, N-(5-(2-((3aR,5r,6aS)-2-(2,2,2-trifluoroethyl)octahydrocyclopenta[c]pyrrol-5-yl)ethoxy)-1H-indol-3-yl)-3-oxabicyclo[3.1.0]hexane-6-carboxamide]
0.2 to 1 µM | O=C(Nc1c[nH]c2ccc(OCCc3ccc(C(F)(F)F)cc3)cc12)C12CC(C1)C2 [Compound 131, N-(5-(4-(trifluoromethyl)phenethoxy)-1H-indol-3-yl)bicyclo[1.1.1]pentane-1-carboxamide]
0.2 to 1 µM | O=C(Nc1c[nH]c2ccc(CCOc3ccc(C(F)(F)F)cc3)cc12)C1CC12CCC2 (stereo not shown) [Compound 104, N-(5-(2-(4-(trifluoromethyl)phenoxy)ethyl)-1H-indol-3-yl)spiro[2.3]hexane-1-carboxamide]
1 to 5 µM | O=C(Nc1c[nH]c2ccc(CCOc3ccc(C(F)(F)F)cc3)cc12)c1ccccn1 [Compound 196, N-(5-(2-(4-(trifluoromethyl)phenoxy)ethyl)-1H-indol-3-yl)picolinamide]
0.2 to 1 µM | O=C(Nc1c[nH]c2ccc(OCC[C@@H]3C[C@@H]4CN(CC(F)(F)F)C[C@@H]4C3)cc12)C12CC(F)(C1)C2 [Compound 185, 3-fluoro-N-(5-(2-((3aR,5r,6aS)-2-(2,2,2-trifluoroethyl)octahydrocyclopenta[c]pyrrol-5-yl)ethoxy)-1H-indol-3-yl)bicyclo[1.1.1]pentane-1-carboxamide]
1 to 5 µM | O=C(Nc1c[nH]c2ccc(OCc3ccc(C(F)(F)F)cc3)cc12)c1cscn1 [Compound 165, N-(5-((4-(trifluoromethyl)benzyl)oxy)-1H-indol-3-yl)thiazole-4-carboxamide]

SMILES | EC50
Cc1oncc1C(=O)Nc1c[nH]c2ccc(O[C@H]3C[C@H](c4ccc(C(F)(F)F)cc4)C3)cc12 [Compound 233, 5-methyl-N-{5-[(1R,3R)-3-[4-(trifluoromethyl)phenyl]cyclobutoxy]-1H-indol-3-yl}-1,2-oxazole-4-carboxamide] | 5 to 100 µM
O=C(Nc1c[nH]c2ccc(O[C@H]3C[C@H](c4ccc(C(F)(F)F)cc4)C3)cc12)c1cccnc1 [Compound 227, N-{5-[(1R,3R)-3-[4-(trifluoromethyl)phenyl]cyclobutoxy]-1H-indol-3-yl}pyridine-3-carboxamide] | 0.2 to 1 µM
O=C(Nc1c[nH]c2ccc(O[C@H]3C[C@@H](c4ccc(C(F)(F)F)cc4)C3)cc12)c1ccccn1 [Compound 170, N-(5-((1s,3s)-3-(4-(trifluoromethyl)phenyl)cyclobutoxy)-1H-indol-3-yl)picolinamide] | 1 to 5 µM
O=C(Nc1c[nH]c2ccc(O[C@H]3C[C@@H](c4ccc(C(F)(F)F)cc4)C3)cc12)C12CC(O)(C1)C2 [Compound 204, 3-hydroxy-N-(5-(cis-3-(4-(trifluoromethyl)phenyl)cyclobutoxy)-1H-indol-3 yl)bicyclo[1.1.1]pentane-1-carboxamide] | 1 to 5 µM
CC12CC(C(=O)Nc3c[nH]c4ccc(O[C@H]5C[C@@H](c6ccc(C(F)(F)F)cc6)C5)cc34)(C1)C2 [Compound 171, 3-methyl-N-(5-((1s,3s)-3-(4-(trifluoromethyl)phenyl)cyclobutoxy)-1H-indol-3-yl)bicyclo[1.1.1]pentane-1-carboxamide] | 0.2 to 1 µM
O=C(Nc1c[nH]c2ccc(O[C@H]3C[C@@H](c4ccc(C(F)(F)F)cc4)C3)cc12)C12CC(C1)C2 [Compound 173, N-(5-((1s,3s)-3-(4-(trifluoromethyl)phenyl)cyclobutoxy)-1H-indol-3-yl)bicyclo[1.1.1]pentane-1-carboxamide] | 0.2 to 1 µM
O=C(Nc1c[nH]c2ccc(O[C@H]3C[C@@H](c4ccc(C(F)(F)F)cc4)C3)cc12)C1CC12CC2 (stereo partly shown) [Compound 172, N-(5-((1s,3s)-3-(4-(trifluoromethyl)phenyl)cyclobutoxy)-1H-indol-3-yl)spiro[2.2]pentane-1-carboxamide] | 0.2 to 1 µM

Source: patent US20230250060A1 (IFM Due, Inc., priority 2022, published 2023)
